Structures can show the parent of a compound that is named as a salt. Where two headings read alike, the source gives them in different places.
Tests used:
Assay type in all cases: biochemical
TYK2 = TYK2 (Homo sapiens, UniProt P29597); experiment: TYK2 kinase inhibition (Table A1)
[1] = molecular target: T1, Recombinant Human Anaplastic Lymphoma Kinase (Homo sapiens, UniProt Q9UM73); experiment: ALK HTRF kinase assay
T1 construct: purchased Invitrogen, Carlsbad, Calif
In short: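 TR-FRET read-out (Eu anti-pTyr antibody + streptavidin-APC) of biotin-peptide phosphorylation by recombinant human enzyme; IC50 by sigmoidal fit with top/bottom baselines and Hill slope.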

[2] = molecular target: T2, human JAK2 (a.a. 828-1132) (Homo sapiens, UniProt O60674); experiment: In vitro JAK kinase assay (HTRF, phosphorylation of a biotinylated peptide), JAK2
T2 construct: JAK2 (a.a. 828-1132); His tag (N); made in house; host or cells: insect cells (baculovirus)
In short: (§1)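 Kinase activity was measured as phosphorylation of a biotinylated peptide, with ATP at 90 μM for JAK1, 30 μM for JAK2 and 3 μM for JAK3. Reactions ran 1 hr at room temperature, were stopped with EDTA plus SA-APC and Eu-Py20, and were read by HTRF after 40 minutes of antibody binding.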

[3] = molecular target: T3, human JAK1 (a.a. 837-1142) (Homo sapiens, UniProt P23458); experiment: In vitro JAK kinase assay (HTRF, phosphorylation of a biotinylated peptide), JAK1; settings: read-out: JAK1 IC50
T3 construct: human JAK1 (a.a. 837-1142); His tag (N); made in house; host or cells: insect cells (baculovirus)
In short: as §1

[4] = molecular target: T4, human JAK3 (a.a. 781-1124) (Homo sapiens, UniProt P52333); experiment: In vitro JAK kinase assay (HTRF, phosphorylation of a biotinylated peptide), JAK3
T4 construct: JAK3 (a.a. 781-1124); His tag (N); made in house; host or cells: insect cells (baculovirus)
In short: as §1

[5] = compound at a concentration of 500 nM or 1 mM (not specified), cells shown as percentage
[6] = Table B1, cells without percent sign
[7] = compound at 500 nM or 1 mM, 90 μM ATP
[8] = method AA1 (30 μM ATP) or AA2 (1000 μM ATP), not stated per value
[9] = method AA1 (90 μM ATP) or AA2 (1000 μM ATP), not stated per value
[10] = method AA1 (3 μM ATP) or AA2 (1000 μM ATP), not stated per value

T3 sequence (P23458 849-1154): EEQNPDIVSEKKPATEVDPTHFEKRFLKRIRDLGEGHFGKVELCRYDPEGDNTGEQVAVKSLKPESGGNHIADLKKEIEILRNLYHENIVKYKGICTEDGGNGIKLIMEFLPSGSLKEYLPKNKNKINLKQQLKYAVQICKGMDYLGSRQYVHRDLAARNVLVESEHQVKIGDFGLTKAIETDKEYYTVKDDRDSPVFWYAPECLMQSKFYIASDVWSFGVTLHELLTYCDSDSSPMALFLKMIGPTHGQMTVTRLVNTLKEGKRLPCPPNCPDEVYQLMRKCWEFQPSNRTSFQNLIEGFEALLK
Chain of TYK2 (P29597 whole entry): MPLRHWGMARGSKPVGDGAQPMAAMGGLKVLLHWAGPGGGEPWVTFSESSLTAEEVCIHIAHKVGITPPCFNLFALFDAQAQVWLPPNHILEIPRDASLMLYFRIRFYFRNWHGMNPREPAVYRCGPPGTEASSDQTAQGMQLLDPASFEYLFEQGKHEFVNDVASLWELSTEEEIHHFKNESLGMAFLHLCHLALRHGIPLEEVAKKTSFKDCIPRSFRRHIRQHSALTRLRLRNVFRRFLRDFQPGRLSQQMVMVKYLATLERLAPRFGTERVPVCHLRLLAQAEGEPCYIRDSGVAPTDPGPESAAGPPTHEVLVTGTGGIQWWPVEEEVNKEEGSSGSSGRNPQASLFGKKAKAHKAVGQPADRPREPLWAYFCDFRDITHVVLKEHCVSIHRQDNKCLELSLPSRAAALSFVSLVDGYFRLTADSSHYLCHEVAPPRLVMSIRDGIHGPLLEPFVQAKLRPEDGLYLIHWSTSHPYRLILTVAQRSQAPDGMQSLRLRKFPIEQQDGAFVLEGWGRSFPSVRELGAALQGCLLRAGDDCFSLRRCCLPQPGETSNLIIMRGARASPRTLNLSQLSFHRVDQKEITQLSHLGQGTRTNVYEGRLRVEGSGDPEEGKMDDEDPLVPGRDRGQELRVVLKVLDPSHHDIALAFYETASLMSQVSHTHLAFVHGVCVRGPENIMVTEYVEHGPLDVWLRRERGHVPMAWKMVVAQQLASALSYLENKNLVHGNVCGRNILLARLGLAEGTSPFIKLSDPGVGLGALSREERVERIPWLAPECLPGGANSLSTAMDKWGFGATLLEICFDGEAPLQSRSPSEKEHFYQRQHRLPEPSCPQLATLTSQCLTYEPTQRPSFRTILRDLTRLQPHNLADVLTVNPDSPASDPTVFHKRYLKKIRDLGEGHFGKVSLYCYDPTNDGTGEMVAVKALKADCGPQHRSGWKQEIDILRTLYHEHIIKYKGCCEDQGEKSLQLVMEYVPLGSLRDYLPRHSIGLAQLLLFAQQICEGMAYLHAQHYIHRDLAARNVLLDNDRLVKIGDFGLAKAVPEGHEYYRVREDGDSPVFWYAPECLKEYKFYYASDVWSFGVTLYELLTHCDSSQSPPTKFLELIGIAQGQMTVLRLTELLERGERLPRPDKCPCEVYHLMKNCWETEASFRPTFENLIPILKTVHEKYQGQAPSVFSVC
T2 sequence (O60674 828-1132): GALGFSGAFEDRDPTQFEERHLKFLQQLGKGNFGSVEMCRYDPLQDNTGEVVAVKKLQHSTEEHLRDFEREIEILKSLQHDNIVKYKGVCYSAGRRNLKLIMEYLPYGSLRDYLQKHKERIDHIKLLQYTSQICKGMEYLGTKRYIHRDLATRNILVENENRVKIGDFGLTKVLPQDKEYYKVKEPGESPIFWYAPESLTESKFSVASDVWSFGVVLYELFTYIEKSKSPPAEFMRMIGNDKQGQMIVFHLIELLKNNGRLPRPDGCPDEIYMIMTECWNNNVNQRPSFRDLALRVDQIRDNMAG
T4 sequence (P52333 781-1124): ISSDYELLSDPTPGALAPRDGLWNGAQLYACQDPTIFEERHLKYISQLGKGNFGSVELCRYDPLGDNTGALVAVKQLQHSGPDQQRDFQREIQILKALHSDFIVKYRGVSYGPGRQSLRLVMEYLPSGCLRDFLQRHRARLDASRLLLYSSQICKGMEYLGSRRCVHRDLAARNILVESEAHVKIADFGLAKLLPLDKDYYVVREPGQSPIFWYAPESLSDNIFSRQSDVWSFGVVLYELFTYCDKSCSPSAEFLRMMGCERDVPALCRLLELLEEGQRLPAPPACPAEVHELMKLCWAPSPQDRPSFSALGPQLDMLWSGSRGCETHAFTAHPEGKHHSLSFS
T1 sequence (Q9UM73 19-1620): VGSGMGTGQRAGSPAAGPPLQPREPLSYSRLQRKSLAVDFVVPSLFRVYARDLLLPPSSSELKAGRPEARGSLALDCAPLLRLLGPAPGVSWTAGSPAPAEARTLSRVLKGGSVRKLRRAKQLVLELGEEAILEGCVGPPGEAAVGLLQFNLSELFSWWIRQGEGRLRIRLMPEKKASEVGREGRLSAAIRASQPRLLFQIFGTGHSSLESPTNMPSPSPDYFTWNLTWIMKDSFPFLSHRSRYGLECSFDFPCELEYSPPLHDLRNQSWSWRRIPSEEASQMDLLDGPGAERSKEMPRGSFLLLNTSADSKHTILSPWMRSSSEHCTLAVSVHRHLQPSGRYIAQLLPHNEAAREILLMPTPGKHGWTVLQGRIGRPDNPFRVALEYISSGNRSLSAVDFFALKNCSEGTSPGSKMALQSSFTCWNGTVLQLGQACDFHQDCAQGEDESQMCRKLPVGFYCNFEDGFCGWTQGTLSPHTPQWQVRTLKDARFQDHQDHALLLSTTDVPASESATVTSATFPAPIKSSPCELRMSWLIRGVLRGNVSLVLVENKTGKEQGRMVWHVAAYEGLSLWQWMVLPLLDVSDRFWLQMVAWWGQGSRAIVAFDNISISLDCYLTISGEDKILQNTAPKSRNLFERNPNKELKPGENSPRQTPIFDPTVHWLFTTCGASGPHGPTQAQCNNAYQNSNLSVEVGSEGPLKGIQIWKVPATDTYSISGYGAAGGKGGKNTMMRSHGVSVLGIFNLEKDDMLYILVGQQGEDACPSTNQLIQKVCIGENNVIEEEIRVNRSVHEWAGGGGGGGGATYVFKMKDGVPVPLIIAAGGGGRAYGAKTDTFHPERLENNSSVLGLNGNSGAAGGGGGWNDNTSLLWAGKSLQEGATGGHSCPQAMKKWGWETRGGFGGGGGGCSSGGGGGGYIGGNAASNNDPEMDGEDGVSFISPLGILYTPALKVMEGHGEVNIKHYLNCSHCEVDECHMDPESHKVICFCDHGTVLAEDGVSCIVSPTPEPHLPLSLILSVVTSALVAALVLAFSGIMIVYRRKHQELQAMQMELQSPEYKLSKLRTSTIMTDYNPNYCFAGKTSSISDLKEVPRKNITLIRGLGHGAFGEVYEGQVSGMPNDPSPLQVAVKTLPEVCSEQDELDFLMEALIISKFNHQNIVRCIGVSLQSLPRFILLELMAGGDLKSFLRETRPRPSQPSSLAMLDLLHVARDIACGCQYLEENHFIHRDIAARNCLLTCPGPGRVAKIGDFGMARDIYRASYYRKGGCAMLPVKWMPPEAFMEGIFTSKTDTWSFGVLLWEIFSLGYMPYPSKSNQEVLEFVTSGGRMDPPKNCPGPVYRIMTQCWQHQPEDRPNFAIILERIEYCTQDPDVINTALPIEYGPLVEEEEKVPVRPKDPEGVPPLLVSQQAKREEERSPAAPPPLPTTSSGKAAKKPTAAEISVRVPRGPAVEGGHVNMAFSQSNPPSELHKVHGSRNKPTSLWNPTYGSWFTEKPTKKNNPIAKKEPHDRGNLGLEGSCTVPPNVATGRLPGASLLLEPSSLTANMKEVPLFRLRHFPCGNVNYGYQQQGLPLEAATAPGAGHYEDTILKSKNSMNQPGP

Row | SMILES | IC50 (TYK2; Table B1) | IC50 ([2]; Table B1) | IC50 ([3]; Table B1) | IC50 ([4]; Table B1) | IC50 (TYK2) | ALK % of inhibition at a concentration of 500 nM or 1 mM [1, 7] | IC50 [2, 8] | IC50 [3, 9] | IC50 [4, 10] | further results
1 | O=C(CC1CCN(C(=O)Nc2cccnc2)CC1)Nc1ccc2cc1CCc1cncc(c1)Nc1ncc(Cl)c(n1)N2 [Example A144, 4-(2-{[6-Chloro-2,4,8,18,22-pentaazatetracyclo[14.3.1.1(3,7).1(9,13)]docosa-1(20),3(22),4,6,9(21),10,12,16,18-nonaen-12-yl]amino}-2-oxoethyl)-N-pyridin-3-ylpiperidine-1-carboxamide bis(trifluoroacetate)] |  |  |  |  | 11 nM | 35% | 6.4 nM | 1.2 nM | > 100 nM | 
2 | N#Cc1cccc(NC(=O)N2CCC(CC(=O)Nc3ccc4cc3CCc3cncc(c3)Nc3ncc(Cl)c(n3)N4)CC2)c1 [Example A142, 4-(2-{[6-Chloro-2,4,8,18,22-pentaazatetracyclo[14.3.1.1(3,7).1(9,13)]docosa-1(20),3(22),4,6,9(21),10,12,16,18-nonaen-12-yl]amino}-2-oxoethyl)-N-(3-cyanophenyl)piperidine-1-carboxamide bis(trifluoroacetate)] |  |  |  |  | 6.5 nM | 41% | 4.8 nM | 2.4 nM | > 100 nM | 
3 | CCNC(=O)N1CCN(C(=O)COc2ccc3cc2CCc2cccc(c2)Nc2ncc(Cl)c(n2)N3)CC1 [Example A12, trifluoroacetate] |  |  |  |  | 30 nM | 17% | 11 nM | 9.4 nM | 65 nM | 
4 | Cc1ncoc1C(=O)N1CCC(CC(=O)Nc2ccc3cc2CCc2cncc(c2)Nc2ncc(Cl)c(n2)N3)CC1 [Example A132, N-[6-Chloro-2,4,8,18,22-pentaazatetracyclo[14.3.1.1(3,7).1(9,13)]docosa-1(20),3(22),4,6,9(21),10,12,16,18-nonaen-12-yl]-2-{1-[(4-methyl-1,3-oxazol-5-yl)carbonyl]piperidin-4-yl}acetamide bis(trifluoroacetate)] |  |  |  |  | 17 nM | 23% | 18 nM | 7.9 nM | 248 nM | 
5 | O=C(CC1CCN(C(=O)c2cnon2)CC1)Nc1ccc2cc1CCc1cncc(c1)Nc1ncc(Cl)c(n1)N2 [Example A138, N-[6-Chloro-2,4,8,18,22-pentaazatetracyclo[14.3.1.1(3,7).1(9,13)]docosa-1(20),3(22),4,6,9(21),10,12,16,18-nonaen-12-yl]-2-[1-(1,2,5-oxadiazol-3-ylcarbonyl)piperidin-4-yl]acetamide bis(trifluoroacetate)] |  |  |  |  | 8 nM | 46% | 7.2 nM | 2 nM | 30 nM | 
6 | Clc1cnc2nc1Nc1cccc(c1)OCCNc1cccc(c1)N2 [Example D70, 6-Chloro-14-oxa-2,4,8,17,24-pentaazatetracyclo[16.3.1.1(3,7).1(9,13)]tetracosa-1(22),3(24),4,6,9(23),10,12,18,20-nonaene bis(trifluoroacetate)] |  |  |  |  |  |  |  |  |  | IC50 (TYK2; Table D1): 5 nM; IC50 ([1]; Table D1, 90 μM ATP): 375 nM; IC50 ([2]; Table D1): 2.1 nM; IC50 ([3]; Table D1): 9 nM; IC50 ([4]; Table D1): 8.1 nM
7 | C[C@H](O)C(=O)Nc1ccc2cc1CCc1cccc(c1)Nc1ncc(Cl)c(n1)N2 [Example A106, (2S)—N-[6-Chloro-2,4,8,22-tetraazatetracyclo[14.3.1.1(3,7).1(9,13)]docosa-1(20),3(22),4,6,9(21),10,12,16,18-nonaen-12-yl]-2-hydroxypropanamide trifluoroacetate] |  |  |  |  | 22 nM | 21% | 10 nM | 18 nM | 6.2 nM | 
8 | O=C1CCc2cccc(c2)Nc2nc(ncc2Cl)Nc2cccc1c2 [Example A5, 6-Chloro-2,4,8,23-tetraazatetracyclo[15.3.1.1(3,7).1(9,13)]tricosa-1(21),3(23),4,6,9(22),10,12,17,19-nonaen-16-one trifluoroacetate] |  |  |  |  | > 100 nM |  | 56 nM | > 100 nM | > 100 nM | IC50 ([1]; 90 μM ATP): 6180 nM

More lines, main results first:

Row | IC50 (TYK2; Table B1) | IC50 ([2]; Table B1) | IC50 ([3]; Table B1) | IC50 ([4]; Table B1) | IC50 (TYK2) | ALK % of inhibition at a concentration of 500 nM or 1 mM [1, 7] | IC50 [2, 8] | IC50 [3, 9] | IC50 [4, 10] | SMILES | further results
9 | 150 nM | 199 nM | 30 nM | > 200 nM |  |  |  |  |  | O=C(Nc1ccc2cc1CCc1cncc(c1)Nc1ncc(Cl)c(n1)N2)N1CCN(c2ccccc2F)CC1 [Example B295, N-[6-Chloro-2,4,8,18,22-pentaazatetracyclo[14.3.1.1(3,7).1(9,13)]docosa-1(20),3(22),4,6,9(21),10,12,16,18-nonaen-12-yl]-4-(2-fluorophenyl)piperazine-1-carboxamide tris(trifluoroacetate)] | ALK % of inhibition at a concentration of 500 nM or 1 mM [1, 5]: 50%
10 | 15 nM | 4.1 nM | 6.5 nM | 7.4 nM |  |  |  |  |  | CC(=O)Nc1ccc2cc1CCc1cccc(c1)Nc1ncc(Cl)c(n1)N2 [Example B26, N-[6-Chloro-2,4,8,22-tetraazatetracyclo[14.3.1.1(3,7).1(9,13)]docosa-1(20), 3(22),4,6,9(21),10,12,16,18-nonaen-12-yl]acetamide trifluoroacetate] | IC50 [1, 6]: 1100 nM
11 | 244 nM | 66 nM | 90 nM | > 400 nM |  |  |  |  |  | Clc1cnc2nc1Nc1ccc(-c3cn[nH]c3)c(c1)CCc1cncc(c1)N2 [Example B350, 6-Chloro-12-(1H-pyrazol-4-yl)-2,4,8,18,22-pentaazatetracyclo[14.3.1.1(3,7).1(9,13)]docosa-1(20),3(22),4,6,9(21),10,12,16,18-nonaene tris(trifluoroacetate)] | ALK % of inhibition at a concentration of 500 nM or 1 mM ([1]; percentage inhibition of the example compound at a concentration of 500 nM or 1 mM (not specified which)): 58%
12 | 8.9 nM | 3.8 nM | 2 nM | 33 nM |  |  |  |  |  | COc1ccccc1NC(=O)Nc1ccc2cc1CCc1cccc(c1)Nc1ncc(Cl)c(n1)N2 [Example B102, N-[6-Chloro-2,4,8,22-tetraazatetracyclo[14.3.1.1(3,7).1(9,13)]docosa-1(20), 3(22),4,6,9(21),10,12,16,18-nonaen-12-yl]-N′-(2-methoxyphenyl)urea trifluoroacetate] | ALK % of inhibition at a concentration of 500 nM or 1 mM [1, 5]: 54%
13 | 206 nM | 7.5 nM | 52 nM | 182 nM |  |  |  |  |  | CC(C)(C)NS(=O)(=O)c1cc2cc(c1)Nc1nc(ncc1Cl)Nc1cccc(c1)CC2 [Example B16, N-(tert-Butyl)-6-chloro-2,4,8,22-tetraazatetracyclo[14.3.1.1(3,7).1(9,13)]docosa-1(20),3(22),4,6,9(21),10,12,16,18-nonaene-11-sulfonamide trifluoroacetate] | IC50 [1, 6]: > 10000 nM
14 | 1.2 nM | 0.2 nM | 0.8 nM | 3 nM |  |  |  |  |  | CCS(=O)(=O)Nc1ccc2cc1CCc1cccc(c1)Nc1ncc(Cl)c(n1)N2 [Example B141, N-[6-Chloro-2,4,8,22-tetraazatetracyclo[14.3.1.1(3,7).1(9,13)]docosa-1(20), 3(22),4,6,9(21),10,12,16,18-nonaen-12-yl]ethanesulfonamide trifluoroacetate] | IC50 [1, 6]: 740 nM
15 | 32 nM | 6.3 nM | 18 nM | 21 nM |  |  |  |  |  | Nc1cc2cc(c1)Nc1nc(ncc1Cl)Nc1cccc(c1)CC2 [Example B21, 6-Chloro-2,4,8,22-tetraazatetracyclo[14.3.1.1(3,7).1(9,13)]docosa-1(20),3(22),4,6,9(21),10,12,16,18-nonaen-11-amine bis(trifluoroacetate)] | IC50 [1, 6]: 1500 nM
16 | 2.6 nM | 1.1 nM | 0.82 nM | 17 nM |  |  |  |  |  | CS(=O)(=O)N1CC[C@@H](NC(=O)Nc2ccc3cc2CCc2cccc(c2)Nc2ncc(Cl)c(n2)N3)C1 [Example B178, N-[6-Chloro-2,4,8,22-tetraazatetracyclo[14.3.1.1(3,7).1(9,13)]docosa-1(20),3(22),4,6,9(21),10,12,16,18-nonaen-12-yl]-N′-[(3R)-1-(methylsulfonyl)pyrrolidin-3-yl]urea trifluoroacetate] | ALK % of inhibition at a concentration of 500 nM or 1 mM [1, 5]: 24%
17 |  |  |  |  | 32 nM |  |  |  |  | O=S1(=O)Nc2cccc(c2)Nc2ncc(Cl)c(n2)Nc2cccc1c2 [Example C7, 6-Chloro-14-thia-2,4,8,15,22-pentaazatetracyclo[14.3.1.1(3,7).1(9,13)]docosa-1(20),3(22),4,6,9(21),10,12,16,18-nonaene 14,14-dioxide trifluoroacetate] | IC50 [1]: 1900 nM; IC50 [2]: 36 nM; IC50 [3]: 63 nM; IC50 [4]: 82 nM

— patent publication US8871753B2, “Macrocyclic compounds and their use as kinase inhibitors” (Incyte Corporation, priority 2008, dated 2014)
